*: point of attachment. AMC = Cc1cc(=O)oc2cc(N*)ccc12; Boc = CC(C)(C)OC(=O)*; OBn = c1ccc(CO*)cc1
Experiments:
[1] = tested on: ARS-FLAG culture supernatant (recombinant ARS protein, SEQ ID NO:2 1st to 531st); experiment: Enzymatic cleavage of MCA-labeled synthetic peptides by ARS-FLAG culture supernatant; assay type: biochemical, human; conditions: substrate 100 μM in TBS pH 7.5, 37° C.; never obtained with blank vector supernatant
Procedure: (§1) The expression plasmids prepared in Examples 3 to 5 were introduced into HEK293-EBNA cell (Invitrogen) using a transfection reagent (FuGENE™6 transfection reagent; Roche) according to the instruction attached thereto. After the introduction of the plasmids, the culture medium was replaced with a serum-free culture medium within 12 to 16 hours and further incubated for another 48 to 60 hours. The culture supernatant was collected and resulting each liquid culture was centrifuged (3000 rpm, 10 minutes) with a centrifuge (Type 8800; Kubota) to obtain culture supernatants. After removing the culture supernatants, the remaining cells were washed with phosphate buffer (PBS; 10 mM sodium phosphate, pH 7.5) and then recovered by scraping from the culture plate by pipetting with phosphate buffer, and centrifuged with a centrifuge (Type 8800; Kubota) at 3000 rpm for 10 minutes. The resulting precipitate was suspended in phosphate buffer, which was defined as the cell fraction. The culture supernatants obtained by the introduction of pCEP-ARSF-FLAG, pCEP-signal-FLAG-ARS-extracellular and pCEP-signal-FLAG-ARS-SerPD are referred to as ARS-FLAG culture supernatant, signal-FLAG-ARS-extracellular culture supernatant, signal-FLAG-ARS-SerPD culture supernatant and signal-FLAG-ARS-SerPDO culture supernatant, respectively.
(§2) The method for detecting enzymatic cleavage activity using a synthetic peptide labeled with MCA (4-methyl-coumaryl-7-amide) in the C terminus was according to the method reported in an academic paper (Yasuoka, S. et al., Am. J. Respir. Cell Mol Biol., Vol. 16, 300-308, 1997), unless otherwise described. […] Subsequently, the fluorescence of AMC (7-amino-4-methyl-coumarin) released from the synthetic peptide by enzymatic cleavage was measured at a wavelength of 460 nm for measurement, using an excitation wavelength of 390 nm with a fluorescent plate reader (Fluostar, SLT).

[2] = target: T1, signal-FLAG-ARS-SerPD culture supernatant (SEQ ID NO:2 237th to 531st) (Homo sapiens, UniProt Q7Z410); experiment: Enzymatic cleavage of MCA-labeled synthetic peptides by signal-FLAG-ARS-SerPD culture supernatant; assay type: biochemical; conditions: substrate 100 μM in TBS pH 7.5, 37° C.; never obtained with blank vector supernatant
T1 construct: made in house; host or cells: HEK293-EBNA
T1 sequence (Q7Z410 with tags, fused parts or gaps): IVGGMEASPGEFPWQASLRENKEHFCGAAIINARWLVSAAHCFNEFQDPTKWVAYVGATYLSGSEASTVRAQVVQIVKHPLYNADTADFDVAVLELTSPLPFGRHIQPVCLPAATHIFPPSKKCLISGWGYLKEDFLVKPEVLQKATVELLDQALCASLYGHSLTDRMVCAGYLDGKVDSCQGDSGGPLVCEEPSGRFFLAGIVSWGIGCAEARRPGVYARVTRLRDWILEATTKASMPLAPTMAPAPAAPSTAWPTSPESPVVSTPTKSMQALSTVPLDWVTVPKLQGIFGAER
Procedure: as §1, §2

[3] = target: T2, enzyme solution treated with trypsin beads (purified signal-FLAG-ARS-extracellular protein) (Homo sapiens, UniProt Q7Z410, INS90FVSSFQKTELEASCVGCSVLNYRDGNSSVLVHFQ); experiment: Substrate cleavage activity of purified protein solution treated with trypsin beads; assay type: biochemical; conditions: substrate 400 μM, ammonium hydrogen carbonate buffer, 37° C. for one hour
T2 construct: FLAG (N); made in house; host or cells: HEK293-EBNA
T2 sequence (Q7Z410 with tags, fused parts or gaps): T1 sequence (Q7Z410 with tags, fused parts or gaps)
T2 sequence (Q7Z410 with tags, fused parts or gaps INS90FVSSFQKTELEASCVGCSVLNYRDGNSSVLVHFQ): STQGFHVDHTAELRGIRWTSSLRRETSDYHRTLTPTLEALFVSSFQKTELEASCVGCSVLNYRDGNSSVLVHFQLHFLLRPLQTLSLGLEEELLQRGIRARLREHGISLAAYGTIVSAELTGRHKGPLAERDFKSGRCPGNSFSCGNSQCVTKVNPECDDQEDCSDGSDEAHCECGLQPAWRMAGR
Procedure: By the same method as in Example 9, an enzyme solution treated with trypsin beads was obtained, using the purified protein solution. Then, the substrate cleavage activity of the enzyme solution was measured by the same method as in Example 8. Specifically, synthetic peptide substrates were diluted in ammonium hydrogen carbonate buffer to become a final concentration of 400 μM in a 96-well plate. After the enzyme solution described above was mixed into the resulting diluted substrates, the mixture were incubated at 37° C. for one hour. Subsequently, the fluorescence of AMC released from the synthetic peptide by enzymatic cleavage were measured.

[4] = target: T3, signal-FLAG-ARS-extracellular culture supernatant (SEQ ID NO:2 51st to 531st) (Homo sapiens, UniProt Q7Z410, INS90FVSSFQKTELEASCVGCSVLNYRDGNSSVLVHFQ); experiment: Enzymatic cleavage of MCA-labeled synthetic peptides by signal-FLAG-ARS-extracellular culture supernatant; assay type: biochemical; conditions: substrate 100 μM in TBS pH 7.5, 37° C.; never obtained with blank vector supernatant
T3 construct: made in house; host or cells: HEK293-EBNA
T3 sequence (Q7Z410 with tags, fused parts or gaps): T1 sequence (Q7Z410 with tags, fused parts or gaps)
T3 sequence (Q7Z410 with tags, fused parts or gaps INS90FVSSFQKTELEASCVGCSVLNYRDGNSSVLVHFQ): T2 sequence (Q7Z410 with tags, fused parts or gaps INS90FVSSFQKTELEASCVGCSVLNYRDGNSSVLVHFQ)
Procedure: as §1, §2

[5] = target: T4, signal-FLAG-ARS-SerPDO culture supernatant (SEQ ID NO:2 237th to 464th) (Homo sapiens, UniProt Q7Z410); experiment: Enzymatic cleavage of MCA-labeled synthetic peptides by signal-FLAG-ARS-SerPDO culture supernatant; assay type: biochemical; conditions: substrate 100 μM in TBS pH 7.5, 37° C.; never obtained with blank vector supernatant
T4 construct: made in house; host or cells: HEK293-EBNA
T4 sequence (Q7Z410 203-430): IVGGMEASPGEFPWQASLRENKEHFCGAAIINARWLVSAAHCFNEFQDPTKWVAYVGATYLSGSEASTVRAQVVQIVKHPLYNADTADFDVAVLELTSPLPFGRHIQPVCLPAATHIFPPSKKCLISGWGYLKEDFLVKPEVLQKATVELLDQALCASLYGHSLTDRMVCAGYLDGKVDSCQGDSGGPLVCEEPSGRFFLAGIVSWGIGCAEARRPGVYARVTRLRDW
Procedure: as §1, §2

cleavage activity of synthetic peptide (fluorescence of released AMC) [2]	cleavage of synthetic peptide by enzyme solution treated with trypsin beads (fluorescence of released AMC) [3]	cleavage activity of synthetic peptide (fluorescence of released AMC) [4]	cleavage activity of synthetic peptide (fluorescence of released AMC) [5]	Substance	cleavage activity of synthetic peptide (fluorescence of released AMC) [1]
showed the cleavage activity	cleaved	showed the cleavage activity	showed the cleavage activity	Boc-Gln-Arg-Arg-{AMC}	showed the cleavage activity
showed the cleavage activity	cleaved	showed the cleavage activity	showed the cleavage activity	Boc-Phe-Ser-Arg-{AMC}	showed the cleavage activity
showed the cleavage activity	cleaved	showed the cleavage activity	showed the cleavage activity	Boc-Glu(OBn)-Ala-Arg-{AMC}	showed the cleavage activity

Reference: patent publication US20060134719A1, “Novel serine protease” (priority 2002, published 2006)
